Like-named read-outs stand apart in the source and are kept apart here.
Key:
Format in all cases: biochemical
Odc1p [1] = molecular target: T1, Odc1p (Saccharomyces cerevisiae, UniProt Q03028); assay: Kinetic constants (Km, Vmax, Ki) of recombinant purified Odc1p in proteoliposomes
T1 construct: made in house; host or cells: S. cerevisiae odc1Δodc2Δ (YPH499 background) carrying pYES2-based pODC1; purified from mitochondria on Ni-NTA agarose
T1 sequence (Q03028 1-310): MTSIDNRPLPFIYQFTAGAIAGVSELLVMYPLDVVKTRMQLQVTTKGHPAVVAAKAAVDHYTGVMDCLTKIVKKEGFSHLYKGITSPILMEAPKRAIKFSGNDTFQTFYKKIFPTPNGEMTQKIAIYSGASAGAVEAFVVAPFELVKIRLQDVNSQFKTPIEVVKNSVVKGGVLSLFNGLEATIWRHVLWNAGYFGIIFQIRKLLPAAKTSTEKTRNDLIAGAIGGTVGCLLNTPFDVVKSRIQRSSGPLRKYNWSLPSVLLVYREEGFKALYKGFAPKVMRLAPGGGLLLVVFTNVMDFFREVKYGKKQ
Protocol: (§1) External substrate was removed from proteoliposomes on a Sephadex G-75 column preequilibrated with buffer F (50 mM NaCl and 10 mM PIPES, pH 7.0). Transport at 25° C. was started by adding [^14C]oxoglutarate (unless otherwise indicated) to the proteoliposomes, and terminated by addition of 30 mM pyridoxal 5′-phosphate and 10 mM bathophenanthroline (the “inhibitor-stop” method (13)). In controls, inhibitors were added with the labelled substrate. The external radioactivity was removed on Sephadex G-75 and the internal radioactivity was measured. […] The initial rate of transport was calculated in mmol/min per g protein from the time course of isotope equilibration (13). Various other transport activities were also assayed by the inhibitor-stop method. For efflux measurements, the internal substrate pool of the proteoliposomes was made radioactive by carrier-mediated exchange equilibration (13) with 0.1 mM [^14C]oxoglutarate added at high specific radioactivity. After 60 min, the residual external radioactivity was removed by passing the proteoliposomes again through a column of Sephadex G-75. Efflux was started by adding unlabelled external substrate or buffer F alone and terminated by adding the inhibitors indicated above.
(§2) The kinetic constants of the recombinant purified Odc1p and Odc2p were determined by measuring the initial transport rate at various external [^14C]oxoglutarate concentrations, in the presence of a constant saturating internal concentration of 20 mM oxoglutarate.
(§3) The values were calculated from Lineweaver-Burk plots of the rate of [^14C]oxoglutarate versus substrate concentrations. The competing substrates at appropriate constant concentrations were added together with 0.1-2.0 mM [^14C]oxoglutarate to proteoliposomes containing 20 mM oxoglutarate and reconstituted with recombinant Odc1p or Odc2p. The data represent the means ±S.D. of at least three different experiments. n.d., not determined.

Odc2p [2] = molecular target: T2, Odc2p (Saccharomyces cerevisiae, UniProt Q99297); assay: Kinetic constants (Km, Vmax, Ki) of recombinant purified Odc2p in proteoliposomes
T2 construct: made in house; host or cells: S. cerevisiae odc1Δodc2Δ (YPH499 background) carrying pYES2-based pODC2; purified from mitochondria on Ni-NTA agarose
T2 sequence (Q99297 1-307): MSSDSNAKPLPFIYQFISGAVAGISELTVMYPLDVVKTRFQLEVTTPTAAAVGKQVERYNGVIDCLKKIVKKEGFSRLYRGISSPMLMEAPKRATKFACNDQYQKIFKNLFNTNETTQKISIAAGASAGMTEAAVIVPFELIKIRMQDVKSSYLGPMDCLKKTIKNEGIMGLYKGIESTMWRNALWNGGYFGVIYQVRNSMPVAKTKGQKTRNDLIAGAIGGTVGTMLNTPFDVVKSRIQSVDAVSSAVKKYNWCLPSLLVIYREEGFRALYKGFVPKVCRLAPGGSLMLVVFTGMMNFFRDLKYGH
Protocol: as §1, §2, §3

Odc1p [3] = molecular target: T1, Odc1p; assay: Dependence on internal substrate of [14C]oxoglutarate uptake into proteoliposomes reconstituted with recombinant Odc1p; settings: for [14C]oxoglutarate transport: proteoliposomes preloaded with 20 mM internal substrate, 0.6 mM [14C]oxoglutarate, 45 seconds
Protocol: (§4) Reconstitution of the ODC proteins into liposomes—Purified ODC proteins were reconstituted by cyclic removal of the detergent with a hydrophobic column (13). The composition of the initial mixture used for reconstitution was: 200 μl of purified isoform (0.3-0.4 μg of protein), 70 μl of 10% Triton X-114, 100 μl of 10% phospholipids in the form of sonicated liposomes, 20 mM oxoglutarate (except where otherwise indicated), 10 mM Pipes (pH 7.0), 0.7 mg of cardiolipin (Sigma) and water to a final volume of 700 μl. These components were mixed thoroughly, and the mixture was recycled 13 times through an Amberlite column (Supelco) (3.0 cm×0.5 cm) preequilibrated with a buffer containing 10 mM Pipes (pH 7.0) and with the substrate at the same concentration as in the starting mixture. All operations were performed at 4° C., except the passages through Amberlite, which were carried out at room temperature.
as §1
(§5) The substrate specificity of purified Odc1p and Odc2p was investigated further by measuring the uptake of [^14C]oxoglutarate into proteoliposomes which had been preloaded with various substrates.
(§6) Proteoliposomes were preloaded internally with various substrates (concentration, 20 mM). Transport was started by adding [^14C]oxoglutarate (final concentration, 0.6 mM) and terminated after 45 seconds.

Odc2p [4] = molecular target: T2, Odc2p; assay: Dependence on internal substrate of [14C]oxoglutarate uptake into proteoliposomes reconstituted with recombinant Odc2p; settings: for [14C]oxoglutarate transport: proteoliposomes preloaded with 20 mM internal substrate, 0.6 mM [14C]oxoglutarate, 45 seconds
Protocol: as §4, §1, §5, §6

Odc2p [5] = molecular target: T2, Odc2p; assay: Effect of inhibitors and external compounds on the [14C]oxoglutarate/oxoglutarate exchange by proteoliposomes reconstituted with Odc2p; settings: Odc2p, data not shown
Protocol: as §4, §1
(§7) In addition, the ability of non-radioactive potential substrates to inhibit the oxoglutarate/oxoglutarate exchange was examined.
Proteoliposomes were preloaded internally with 20 mM oxoglutarate and transport was initiated by the addition of 0.4 mM [^14C]oxoglutarate. The incubation time was 45 seconds. Thiol reagents and α-cyanocinnamate were added 2 min before the labelled substrate; the other inhibitors and external substrates were added together with [^14C]oxoglutarate. The final concentration of the inhibitors was 4 mM, except for mercurials (10 μM), carboxyatractyloside (0.1 mM), N-ethylmaleimide and α-cyanocinnamate (2 mM).

Odc1p [6] = molecular target: T1, Odc1p; assay: Effect of inhibitors and external compounds on the [14C]oxoglutarate/oxoglutarate exchange by proteoliposomes reconstituted with Odc1p; settings: Odc1p; for effect of non-radioactive potential substrates on the rate of oxoglutarate uptake (in words): added with 0.4 mM [14C]oxoglutarate, 4.0 mM in FIG. 5, partly data not shown
Protocol: FIG. 5. Effect of dicarboxylates and 2-oxodicarboxylates with different carbon chain length on the rate of [^14C]oxoglutarate uptake into proteoliposomes reconstituted with recombinant Odc1p. Proteoliposomes were preloaded with 20 mM oxoglutarate and reconstituted with recombinant Odc1p. Transport was initiated by the addition of 0.4 mM [^14C]oxoglutarate and terminated after 45 seconds. Oxalate, malonate, succinate, glutarate, adipate, pimelate, suberate (▪) and the corresponding 2-oxoacids (●) were added simultaneously with [1^4C]oxoglutarate at 4.0 mM concentration.
as §4, §1, §7
Proteoliposomes were preloaded internally with 20 mM oxoglutarate and transport was initiated by the addition of 0.4 mM [^14C]oxoglutarate.

Odc1p [7] = molecular target: T1, Odc1p; assay: Homoexchange of other substrates in proteoliposomes reconstituted with Odc1p; settings: internal concentration 10 mM, external concentration 1 mM
Protocol: as §1
(§8) In order to obtain further information about the mechanism of transport catalyzed by Odc1p and Odc2p, the efflux of [^14C]oxoglutarate from pre-labelled active proteoliposomes was investigated as it provides a more convenient assay for unidirectional transport (13).

Odc2p [8] = molecular target: T2, Odc2p; assay: Homoexchange of other substrates in proteoliposomes reconstituted with Odc2p; settings: internal concentration 10 mM, external concentration 1 mM
Protocol: as §1, §8

[9] = Odc1p, Lineweaver-Burk plots, 0.1-2.0 mM [14C]oxoglutarate, 20 mM internal oxoglutarate, means ±S.D., read-out: Ki (competition with [14C]oxoglutarate uptake)
[10] = Odc2p, Lineweaver-Burk plots, 0.1-2.0 mM [14C]oxoglutarate, 20 mM internal oxoglutarate, means ±S.D., read-out: Ki (competition with [14C]oxoglutarate uptake)
[11] = Odc1p, proteoliposomes preloaded with various substrates
[12] = Odc2p, proteoliposomes preloaded with various substrates
[13] = read-out: transport affinity (Km) for the oxoglutarate/oxoglutarate exchange

Ki (Odc1p [1]; [9])	Ki (Odc2p [2]; [10])	[14C]oxoglutarate transport (Odc1p [3]; Odc1p)	[14C]oxoglutarate uptake with the internal substrate (in words) (Odc1p [3]; [11])	[14C]oxoglutarate transport (Odc2p [4]; Odc2p)	[14C]oxoglutarate uptake with the internal substrate (in words) (Odc2p [4]; [12])	homoexchange catalyzed by the proteoliposomes (in words) (Odc1p [7])	homoexchange catalyzed by the proteoliposomes (in words) (Odc2p [8])	Compound	other results
> 15000 µM	> 15000 µM	–	–	–	–	–	–	O=C(O)CC(=O)C(=O)O [Oxaloacetate]	–
> 15000 µM	–	19.1 mmol/min per g protein	much lower activity	4.3 mmol/min per g protein	much lower activity	–	–	O=C(O)CCC(=O)O [Succinate]	effect of non-radioactive potential substrates on the rate of oxoglutarate uptake (in words) (Odc2p [5]): virtually no effect; effect of non-radioactive potential substrates on the rate of oxoglutarate uptake (in words) (Odc1p [6]): virtually no effect
260 ± 30 µM	310 ± 40 µM	85.0 mmol/min per g protein	taken up efficiently	22.1 mmol/min per g protein	taken up efficiently	–	–	O=C(O)CCCC(=O)C(=O)O [2-Oxoadipate]	–
–	–	–	no exchange	–	no exchange	did not catalyze homoexchanges	did not catalyze homoexchanges	Nc1ncnc2c1ncn2[C@@H]1O[C@H](COP(=O)(O)OP(=O)(O)O)[C@@H](O)[C@H]1O [ADP]	–
–	–	–	no exchange	–	no exchange	did not catalyze homoexchanges	did not catalyze homoexchanges	NC(=O)CC[C@H](N)C(=O)O [glutamine]	effect of non-radioactive potential substrates on the rate of oxoglutarate uptake (in words) (Odc2p [5]): no effect; effect of non-radioactive potential substrates on the rate of oxoglutarate uptake (in words) (Odc1p [6]): no effect
1830 ± 200 µM	1640 ± 180 µM	71.6 mmol/min per g protein	taken up efficiently	14.8 mmol/min per g protein	taken up efficiently	–	–	O=C(O)CCCCC(=O)C(=O)O [2-Oxopimelate]	–
–	–	–	no exchange	–	no exchange	did not catalyze homoexchanges	did not catalyze homoexchanges	CC(C)CC(=O)C(=O)O [2-oxoisocaproate]	effect of oxomonocarboxylates on the rate of uptake of 0.4 mM oxoglutarate (in words) (Odc2p [5]; 8 mM, 20 times greater than the substrate): did not influence; effect of oxomonocarboxylates on the rate of uptake of 0.4 mM oxoglutarate (in words) (Odc1p [6]; 8 mM, 20 times greater than the substrate, data not shown): did not influence
1320 ± 130 µM	1370 ± 160 µM	56.4 mmol/min per g protein	taken up efficiently	11.4 mmol/min per g protein	taken up efficiently	–	–	O=C(O)C[C@H](O)C(=O)O [L-malate]	–

Compound	Ki (Odc1p [1]; [9])	Ki (Odc2p [2]; [10])	[14C]oxoglutarate transport (Odc1p [3]; Odc1p)	[14C]oxoglutarate uptake with the internal substrate (in words) (Odc1p [3]; [11])	[14C]oxoglutarate transport (Odc2p [4]; Odc2p)	[14C]oxoglutarate uptake with the internal substrate (in words) (Odc2p [4]; [12])	homoexchange catalyzed by the proteoliposomes (in words) (Odc1p [7])	homoexchange catalyzed by the proteoliposomes (in words) (Odc2p [8])	other results
O=S(=O)(O)O [sulfate]	–	–	–	–	–	–	did not catalyze homoexchanges	did not catalyze homoexchanges	[14C]oxoglutarate uptake with the internal substrate (in words) (Odc1p [3]): no exchange; [14C]oxoglutarate uptake with the internal substrate (in words) (Odc2p [4]): no exchange
O=C(O)CCC(=O)C(=O)O [2-Oxoglutarate]	–	–	112.5 mmol/min per g protein	taken up efficiently	–	–	–	–	specific activity (Vmax) for the oxoglutarate/oxoglutarate exchange (Odc1p [1]; Odc1p, 25° C., 20 mM internal oxoglutarate, 24 experiments): 252±53 mmol/min per g protein; Km (Odc1p [1]; [13]): 520 ± 80 µM; specific activity (Vmax) for the oxoglutarate/oxoglutarate exchange (Odc2p [2]; Odc2p, 25° C., 20 mM internal oxoglutarate, 16 experiments): 73±17 mmol/min per g protein; Km (Odc2p [2]; [13]): 470 ± 70 µM
N[C@@H](CCC(=O)O)C(=O)O [glutamate]	–	–	–	no exchange	–	no exchange	did not catalyze homoexchanges	did not catalyze homoexchanges	–
O=C(O)CC(O)(CC(=O)O)C(=O)O [Citrate]	–	–	28.6 mmol/min per g protein	much lower activity	8.0 mmol/min per g protein	much lower activity	–	–	Ki (Odc1p [1]): 6000 ± 800 µM; Ki (Odc2p [2]): 5900 ± 600 µM

Source: patent US20020155192A1, “Yeast transport isoforms” (priority 2000, published 2002)
